The values that follow come from paper PMC11952641, “A Novel D-peptide modulates DCLK1 Gelsolin interactions, reducing PDAC tumor growth” (Research Square, 2025).

Non-standard residues stand in square brackets, D forms with d. Residues, ends and D or L forms follow the SMILES beside them.

As a reminder, the Kd is the constant that tells how readily two partners part at equilibrium.

Assay [1] has as its target T1, DCLK1 isoform 4 (human His-tagged DCLK1 C-terminal recombinant protein) (Homo sapiens, UniProt O15075).
T1 sequence (O15075 687-740 limits assumed): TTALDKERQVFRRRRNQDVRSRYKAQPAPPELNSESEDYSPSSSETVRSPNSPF
The assay is described as follows: BLI evaluation of D-peptide binding to DCLK1 NKEBD. As to conditions: DCLK1 isoform 4 immobilized on biosensor, PBS/0.05%Tween20/1%DMSO, from 30 μM in a 1:3 series. How it is done: (§1) Purification of human DCLK1 isoform 4 was performed at the University of Oklahoma Protein Production and Characterization Core Facility (Norman, OK) using an E. coli strain BL21(DE3) pLPP containing the pET19-DCLK1 isoform 4 plasmid. For Bio-layer Interferometry (BLI) experiments, a C-terminal DCLK1 isoform 2/4 His-tagged protein was used (NovoPro, Shanghai, China). All His-tagged proteins were dialyzed using PBS/glycerol to remove imidazole.
Human His-tagged DCLK1 C-terminal recombinant protein from NovoPro was used. Binding to the sensor was carried out in PBS/0.05%Tween20/1%DMSO. Response is measured as a nm shift in the interference pattern and is proportional to the number of molecules bound to the biosensor’s surface. Initially, all peptides were tested at 5 and 30 μM. The top binders were tested again with eight different concentrations, starting at 30 μM and diluted in a 1:3 series to determine the dissociation constant (KD).

Assay [2] has as its system DCLK1 isoform 4. The assay is described as follows: D-peptide library screen for binding to DCLK1 isoform 4, excluding isoform 1 binders. Details: species or system human. Conditions: bead library screen, biotin-labeled DCLK1 isoform 4. The procedure:
An aliquot from each sub-library, containing approximately 1000 beads, was added to a well of a 96-well polystyrene multi-well plate. From 1.5 to 2 ml of Superblock (Pierce Chemical Company, Rockford, IL.) reagent, 0.1% gelatin, or 1%(w/v) bovine serum albumin (BSA) in phosphate-buffered saline (PBS), pH 7.4, was added to each well, and the plates were incubated for one to two hours at room temperature (RT), with periodic or continuous mixing by gentle rocking. Purified DCLK1 isoform 4 protein was labeled with biotin using the biotinylating reagent NHS-LC-biotin (Pierce Chemical Company) according to the supplier’s instructions. Biotin-labeled protein was detected using AP-conjugated to neutravidin (Pierce Chemical Company) incubated with the beads for 30 minutes, after which the beads were washed three times with a Tris-buffered saline solution (pH 7.5), with the second wash being left in contact with the beads for 30 minutes. One-step NBT/BCIP (nitro-blue tetrazolium chloride/5-bromo-4-chloro-3’-indolyphosphate p-toluidine salt) (Pierce Chemical Co.) was then added and the beads observed under a low-power microscope until some of the beads had turned a dark purple color. The beads were washed with PBS twice, followed by 1% acetic acid and a final wash in water. Dark purple-black beads were removed using a small-bore pipette and subjected to amino acid sequence analysis. […]

Assay [3] deals with DCLK1 isoform 1. The assay is described as follows: Cross-reactivity to DCLK1 isoform 1. It counts as binding, human.
Assay [4] relates to DCLK1 isoform 4 / CBT-15. The assay is described as follows: Competition assay: CBT-15 binding to DCLK1 isoform 4. Details: species or system human. Conditions: Fig. 1D, mean ± SEM, *p < 0.01.
The test system of assay [5] is AsPC-1 pancreatic cancer cells. The assay is described as follows: Colony formation assay, AsPC-1. The format is cell-based. Conditions: Fig. 2A, blinded study.
For assay [6], the system named is Capan-1 pancreatic cancer cells. The assay is described as follows: Colony formation assay, Capan-1. It counts as cell-based. As to conditions: Fig. 2B, blinded study.
In assay [7] the test system is AsPC-1 xenografts. The assay is described as follows: AsPC-1 xenograft tumor growth in athymic nude mice. It counts as in vivo, athymic nude (Foxn1nu/Foxn1nu) mice. As to conditions: 10 mg/kg subcutaneously every three days; day 36. The procedure: Athymic nude (Foxn1^nu/Foxn1^nu) mice were purchased from the Jackson Laboratory (Bar Harbor, Maine) and housed in pathogen-free conditions. AsPC-1 cells (1 × 10^7) were injected subcutaneously into the flanks of 4- to 6-week-old mice (n=3/group). Tumors were measured using a caliper and the volume was calculated as (length × width^2) × 0.5. Once tumors achieved an average size of ~100 mm^3, mice were injected subcutaneously with selected D-peptides at a dose of 10 mg/kg. Treatments were continued every three days until day 36.

For assay [8], the system named is DCLK1 isoform 4-pGSN. The assay is described as follows: ELISA: effect of peptides on DCLK1-Gelsolin PPI. It counts as binding, human. As to conditions: peptide 20 mg/well (so in the source), pGSN 2 μg/ml, Fig. 3H. The procedure:
as §1
(§2) Polystyrene microtitre Immulon 2HB plate was coated with freshly prepared (400 ng/50 ml) DCLK1 isoform 4 ([…]) in 0.1 M NaHCO3, pH 8.6, overnight at 4C. After blocking with 1% gelatin in TTBS at RT, different concentrations of gelsolin or FGF19 were added (2 mg/50ul/well, 1 mg/well, 0.5 mg/well, and 0.25 mg/well at […], proteins diluted in TTBS), and incubated at RT. To study the competitive ability of peptides, we used 20 mg/well of either D-peptide 1, D-peptide 3, D-peptide 5, or the C-terminal peptide antigen for the mAb CBT-15. After incubation at RT, plates were washed with TTBS, and bound gelsolin or FGF19 was detected. […] Detection was by alkaline phosphatase-conjugated goat anti-mouse IgG (ab97020; Abcam, Waltham, MA) followed by 1-STEP NBT/BCIP substrate (#34042; ThermoFisher Scientific, Waltham, MA) and quantified at 450 nm on a microplate reader.
(In an ELISA, binding on a coated surface is turned into a signal by an enzyme label.)

Assay [9] relates to DCLK1 isoform 4. The assay is described as follows: ELISA: FGF19 binding to DCLK1 isoform 4. On the set-up: species or system human. As to conditions: RT, 450 nm, Fig. 3H. The procedure: as §1, §2
Assay [10] concerns the target DCLK1 isoform 4. The assay is described as follows: SPR binding to DCLK1 isoform 4. Details: species or system human. As to conditions: DCLK1 isoform 4 binding to Gelsolin, Fig. 3F. The procedure: as §1
Assay [11] has as its system DCLK1 isoform 4. The assay is described as follows: ELISA: pGSN binding to DCLK1 isoform 4. Details: species or system human. Conditions: 1% gelatin blocking, RT, 450 nm, Fig. S2. The procedure: as §1, §2
Assay [12] has as its target T2, plasma gelsolin (UniProt P06396 28-782).
T2 construct: plasma gelsolin (pGSN), the extracellular form of gelsolin; The source is told for the ELISA only; also called pGSN; source: bought: Abcam (ab233671)
The assay is described as follows: SPR; who was immobilised and the conditions not given. Conditions: both partners purified. (In general: In SPR one partner is held on a chip, and binding of the other changes the refractive index at the surface.)

T2 sequence (P06396 28-782): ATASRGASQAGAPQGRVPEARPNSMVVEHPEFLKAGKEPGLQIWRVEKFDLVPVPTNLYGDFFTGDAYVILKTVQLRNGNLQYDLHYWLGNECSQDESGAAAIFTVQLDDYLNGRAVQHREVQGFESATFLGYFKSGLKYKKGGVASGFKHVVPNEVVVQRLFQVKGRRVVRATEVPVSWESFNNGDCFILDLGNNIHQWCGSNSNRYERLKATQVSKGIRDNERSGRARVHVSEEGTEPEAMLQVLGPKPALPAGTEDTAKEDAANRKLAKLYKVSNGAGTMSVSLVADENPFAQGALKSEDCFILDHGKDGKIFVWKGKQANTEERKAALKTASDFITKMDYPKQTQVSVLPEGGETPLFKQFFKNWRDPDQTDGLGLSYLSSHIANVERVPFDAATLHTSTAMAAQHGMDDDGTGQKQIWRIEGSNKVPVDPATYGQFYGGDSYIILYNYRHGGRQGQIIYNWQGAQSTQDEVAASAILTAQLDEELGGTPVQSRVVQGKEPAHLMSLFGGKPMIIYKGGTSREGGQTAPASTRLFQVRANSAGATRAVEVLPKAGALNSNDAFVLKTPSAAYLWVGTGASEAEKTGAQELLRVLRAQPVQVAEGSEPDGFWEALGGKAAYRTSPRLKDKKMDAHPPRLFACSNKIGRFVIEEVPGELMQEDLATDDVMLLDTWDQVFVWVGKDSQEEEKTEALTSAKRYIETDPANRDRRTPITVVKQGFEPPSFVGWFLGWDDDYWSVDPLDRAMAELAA

Take `NCC(=O)N[C@H](Cc1c[nH]c2ccccc12)C(=O)N[C@H](Cc1ccc(O)cc1)C(=O)NCC(=O)N[C@H](Cc1c[nH]c2ccccc12)C(=O)NCC(=O)N[C@H](CC(=O)O)C(=O)N[C@H](CC(=O)O)C(=O)O` [D-peptide 1] (H-G[dW][dY]G[dW]G[dD][dD]-OH): the dissociation constant Kd in assay [1] stood at 396 nM. In addition, in [2], the “specific binding to isoform 4” value is “binds specifically to DCLK1 isoform 4”. Also, the “cross-reactivity to isoform 1” value in [3] is given as “minimal cross-reactivity to isoform 1”. Besides, the “inhibition of CBT-15 binding to DCLK1 isoform 4” value in assay [4] is “None of these D-peptides significantly inhibited CBT-15 binding”. In assay [5], the colony formation entry is “significantly reduced colony formation at low micromolar concentrations”. Moreover, the colony formation result in [6] is listed as “significantly reduced colony formation at low micromolar concentrations”. Further, the “necrosis or apoptosis in tumors” value in assay [7] is reported as “without inducing necrosis or apoptosis”. Further, in [8], the “effect on pGSN binding to DCLK1 isoform 4” value is on record as “did not block the PPI interaction” and the “improvement of pGSN binding to DCLK1” value is given as “seemed to improve pGSN binding to DCLK1”.
With “FGF19: candidate DCLK1 interacting protein known to be extracellularly localized (969-FG-025; Bio-Techne)”, the “binding to DCLK1 isoform 4” value in assay [9] is recorded as “bound to DCLK1 isoform 4 similarly to pGSN”.
On to Gelsolin, for which, in assay [10], the equilibrium dissociation constant (Kd) is ~100 nM. The “binding to DCLK1 isoform 4 across the gradient” value in assay [11] is “consistent, linear binding”.

B1: human DCLK1 isoform 4 (β-short) (natural protein, UniProt O15075-4 1-433, looked up)
chain: MLELIEVNGTPGSQLSTPRSGKSPSPSPTSPGSLRKQRSSQHGGSSTSLASTKVCSSMDENDGPGEEVSEEGFQIPATITERYKVGRTIGDGNFAVVKECVERSTAREYALKIIKKSKCRGKEHMIQNEVSILRRVKHPNIVLLIEEMDVPTELYLVMELVKGGDLFDAITSTNKYTERDASGMLYNLASAIKYLHSLNIVHRDIKPENLLVYEHQDGSKSLKLGDFGLATIVDGPLYTVCGTPTYVAPEIIAETGYGLKVDIWAAGVITYILLCGFPPFRGSGDDQEVLFDQILMGQVDFPSPYWDNVSDSAKELITMMLLVDVDQRFSAVQVLEHPWVNDDGLPENEHQLSVAGKIKKHFNTGPKPNSTAAGVSVIATTALDKERQVFRRRRNQDVRSRYKAQPAPPELNSESEDYSPSSSETVRSPNSPF
modifications: biotin (NHS-LC-biotin) in the library screen only
notes: human DCLK1 isoform 4 (β-short, NP_001182345); also called Doublecortin-like kinase 1 isoform 4; beta-short; source: E. coli BL21(DE3) pLPP with the pET19-DCLK1 isoform 4 plasmid, purified
Regarding B1, the dissociation constant Kd in [12] is ~100 nM.
